The test relates to breast cancer patients. The test is described as follows: Chemotherapeutic effect of anticancer agent: tumor size reduction evaluated by palpation in breast cancer patients. It is filed as in vivo, human. Here is the method:
An anticancer agent docetaxel (Aventis) was administered 4 times with an interval of 3 to 4 weeks, with 60 mg/M^2 (body surface area) per dosage for the breast cancer patients A through I. After the administration, the tumor size reduction was assessed.
A pathologist evaluated the tumors by palpation according to the criteria described in the following paper: Arbuck S G, Eisenhauer E A, Wanders J, Kaplan R S, Rubinstein L, Verweij J, Van Glabbeke M, van Oosterom A T, Christian M C, and Gwyther S G, “New guidelines to evaluate the response to treatment in solid tumors”, J. Natl. Cancer Inst 2000; 92: 205-21. When the tumor was evaluated with the result of “Complete response” and “Partial response”, the tumor was classified into the group of tumor size reduction. When the tumor was evaluated with the result of “Stable Disease” and “Progressive Disease”, the tumor was classified into the group of non-tumor size reduction.
An anticancer agent paclitaxel (Bristol Meyers Squibb) was administered once a week for 12 consecutive weeks, with 80 mg/M^2 (body surface area) per dosage for the breast cancer patients A through I (sic, correctly, J through P). After the administration, the tumor size reduction was assessed according to the same criterion as used in the administration of docetaxel.

The mark [1] stands for this setting: docetaxel 60 mg/M^2 per dosage, 4 times with an interval of 3 to 4 weeks, breast cancer patients A through I.

Molecules are shown by their SMILES.

`CC(=O)O[C@@]12CO[C@@H]1C[C@H](O)[C@@]1(C)C(=O)[C@H](O)C3=C(C)[C@@H](OC(=O)[C@H](O)[C@@H](NC(=O)OC(C)(C)C)c4ccccc4)C[C@@](O)([C@@H](OC(=O)c4ccccc4)[C@H]21)C3(C)C` [docetaxel]: under setting [1], the “patients classified into non-tumor size reduction group (Stable Disease or Progressive Disease)” value was “A, B, C, and D”; the “patients classified into tumor size reduction group (Complete response or Partial response)” value is “E, F, G, H, and I”.
As for `CC(=O)O[C@H]1C(=O)[C@@]2(C)[C@H]([C@H](OC(=O)c3ccccc3)[C@]3(O)C[C@H](OC(=O)[C@H](O)[C@@H](NC(=O)c4ccccc4)c4ccccc4)C(C)=C1C3(C)C)[C@]1(OC(C)=O)CO[C@@H]1C[C@@H]2O` [paclitaxel], under “paclitaxel 80 mg/M^2 per dosage, once a week for 12 consecutive weeks, breast cancer patients J through P”, the “patients who were assessed that the tumor size reduction was observed” value was “K, L, M, N, O, and P”.

The values above are taken from patent US20070231837A1, “Method of Assessing Properties of Mammalian Cells, and Method of Diagnosing Cancer Using the Same” (priority 2004, published 2007).
